Data: patent US10494402B2, “Peptides that stimulate subcutaneous adipogenesis” (The Regents of the University of California, priority 2012, dated 2019)

Experiments:
[1] = system: Human pre-adipocytes; test: Adipogenesis in 3D collagen gel culture; format: cell-based; conditions: 3D collagen gels in the presence of adipogenic cocktail
Description: The adipogenic activity of peptide B (SEQ ID NO:2) was also examined using a three-dimensional (3D) culture system that models human skin.
Human pre-adipocytes were cultured in 3D collagen gels in the presence of the adipogenic cocktail described above (Adipocyte Differentiation Medium (ZenBio catalog no. DM-2)) and exposed to peptide B (SEQ ID NO: 2). […] The 3D results predict the ability of the B peptide to promote adipogenesis in vivo.

[2] = system: 2D human Pre-adipocytes; test: Adipogenic potential ranking in 2D tissue culture, human pre-adipocytes; format: cell-based; conditions: scale of 0-5, 5 highest
Description: (§1) Examples of the adipogenic effects of RHAMM antagonists (peptide B (SEQ ID NO: 2), peptide P15-1 (SEQ ID NO. 1), and the antibody to peptide B) are summarized in Table 1. Peptide P15-1, peptide B, and a RHAMM antibody were assayed for their effects on pre-adipocyte stem cells in culture and when injected into the dermis of aged rats. Reagents were ranked on a scale of 0-5 with 5 representing the highest possible score and a completely filled in Harvey ball. “2D” refers to two-dimensional tissue culture.

[3] = system: 2D rat Pre-adipocytes (rat mesenchymal stem cells); test: Adipogenic potential ranking in 2D tissue culture, rat pre-adipocytes; format: cell-based; conditions: ranked on a scale of 0-5 with 5 representing the highest possible score
Description: as §1

[4] = system: nude guinea pigs; test: Subcutaneous fat deposition in nude guinea pigs; format: in vivo, guinea pig; conditions: injection on upper back and in ear fat pad; control collagen gel vehicle only
Description: Peptide B (SEQ ID NO: 2) was also tested for its effect in nude guinea pigs since their skin structure resembles human facial skin. In particular, the skin of this animal model is more similar to human skin than is rat skin, in that it is hairless and the keratinocyte layer is thicker than in the rat model. […] Thus, peptide B was effective in promoting adipogenesis in this nude guinea pig model.

[5] = system: mesenchymal stem cells or papillary fibroblasts; test: Adipogenesis by RHAMM antagonists in tissue culture and in vivo (summary statements)
Text: (§2) We hypothesized that the fragment and the antibody were blocking RHAMM function by competitive inhibition and by direct binding/blocking of RHAMM, respectively. Using truncation analyses, the size of the peptide was further reduced to 32 amino acids ([…] (SEQ ID NO: 92)) and it was shown that adipogenic activity is localized to a 15 amino acid peptide (KLKDENSQLKSEVSK (SEQ ID NO: 2); “peptide B” or “B-1” herein) shown in FIG. 2. This peptide was chemically synthesized to use as a competitive blocker, and antibodies were prepared against this sequence tagged with keyhold lymphocyte hemacyanin (KLH) to directly bind/block RHAMM function.
The RHAMM sequence that contains adipogenic activity also contains the hyaluronan binding region of this protein.
All of these reagents can replace insulin in their ability to promote adipogenesis in mesenchymal stem cells or papillary fibroblasts.

[6] = system: RHAMM; test: Blocking of RHAMM function; conditions: competitive blocker / direct binding
Text: as §2

KLKDENSQLKSEVSK [peptide B]
adipogenesis (light refractory lipid droplets) [1]: promoted adipogenesis
adipogenic potential, 2D human Pre-adipocytes [2]: 5
adipogenic potential, 2D rat Pre-adipocytes (rat mesenchymal stem cells) [3]: 5
subcutaneous fat deposition (H and E staining) [4]: increase in subcutaneous fat deposition
adipogenesis in tissue culture and in vivo [5]: promote adipogenesis in tissue culture and in vivo
adipogenicity relative to the other reagents of Table 1 [5]: the most adipogenic of these reagents
RHAMM function [6]: effectively block RHAMM function
